Positions count from the first letter of the chain named. Values belong to the compound of their own block, whether it stands above or below them.
Assays:
[1] = target: T1, OX1R (Rattus norvegicus, UniProt P56718); experiment: Radio-ligand displacement binding, CHO-K1 membranes, rat OX1R; conditions: read-out: OX1R affinity (Ki)
T1 construct: expressed in transfected cells; host or cells: CHO-K1
T1 sequence (P56718 1-416): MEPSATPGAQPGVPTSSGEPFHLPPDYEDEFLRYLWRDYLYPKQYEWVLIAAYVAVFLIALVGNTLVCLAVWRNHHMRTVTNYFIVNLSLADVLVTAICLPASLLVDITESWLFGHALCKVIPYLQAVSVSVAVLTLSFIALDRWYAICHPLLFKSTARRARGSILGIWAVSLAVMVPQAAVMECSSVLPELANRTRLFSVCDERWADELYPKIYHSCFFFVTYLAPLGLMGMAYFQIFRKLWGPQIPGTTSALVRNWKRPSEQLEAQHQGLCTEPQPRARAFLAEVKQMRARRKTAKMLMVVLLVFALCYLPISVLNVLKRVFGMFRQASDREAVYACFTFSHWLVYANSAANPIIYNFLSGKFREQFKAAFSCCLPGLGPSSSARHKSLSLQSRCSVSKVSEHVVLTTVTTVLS
Procedure: (§1) MK-1064 was evaluated for its ability to inhibit orexin-peptide-A-induced calcium mobilization in CHO cell lines separately expressing OX1R and OX2R from mice, rats, rabbits, dogs, rhesus monkeys and humans.
(§2) Binding and functional blockade of OX1R and OX2R with MK-1064 relative to other 2-SORAs and the DORA, MK-6096, were assessed using membranes from Chinese hamster ovary (CHO)-K1 cells (American Type Tissue Collection, Manassas, VA) transfected to express human, mouse, rat, rabbit, dog, or rhesus monkey OX1R or OX2R receptors, as described previously. The kinetics of binding to human OX2R was assessed by radioligand displacement on CHO-K1 cells expressing the receptor. […] The ON rate analysis was performed by presoaking GF/B filters in 0.3% polyethyleneimine (Sigma) using a Skatron 12-well cell harvester and cold buffer at the indicated time points after addition. For OFF rate determination, binding reactions were allowed to proceed to equilibrium and terminated with 1000x [Kd] of unlabeled antagonist and filtered as above at pre-determined time points. Ultima Gold^TM (PerkinElmer 6013327) scintillation cocktail was added to each filter disc and counted on a PerkinElmer TriCarb 2910 scintillation counter. Data were analyzed using GraphPad® Prism v 6.04 (San Diego, CA, USA). The KON rate was determined according to the equation, KON = (KOBS − KOFF)/[ligand].

[2] = target: T2, OX2R (Macaca mulatta, UniProt F7CZM2); experiment: Inhibition of orexin-peptide-A-induced calcium mobilization in CHO cells, rhesus OX2R; assay type: cell-based, rhesus monkey; conditions: for fold OX2R selectivity (Kb): OX1R Kb / OX2R Kb
T2 sequence (F7CZM2 1-444): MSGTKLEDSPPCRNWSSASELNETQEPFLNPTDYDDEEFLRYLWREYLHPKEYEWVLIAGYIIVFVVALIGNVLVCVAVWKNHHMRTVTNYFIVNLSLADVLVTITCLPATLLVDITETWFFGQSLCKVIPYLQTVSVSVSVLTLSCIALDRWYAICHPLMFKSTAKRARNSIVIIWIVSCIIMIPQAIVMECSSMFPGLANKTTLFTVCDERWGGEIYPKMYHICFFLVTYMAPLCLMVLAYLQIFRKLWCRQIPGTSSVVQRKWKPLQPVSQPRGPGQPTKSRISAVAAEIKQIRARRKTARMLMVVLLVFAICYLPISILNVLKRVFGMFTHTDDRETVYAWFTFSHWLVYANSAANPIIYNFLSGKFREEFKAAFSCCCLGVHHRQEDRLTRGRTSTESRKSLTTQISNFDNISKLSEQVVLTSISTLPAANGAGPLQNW
Procedure: as §1, §2

[3] = target: T3, OX2R (Canis lupus familiaris, UniProt Q9TUP7); experiment: Inhibition of orexin-peptide-A-induced calcium mobilization in CHO cells, dog OX2R; assay type: cell-based; conditions: for fold OX2R selectivity (Kb): OX1R Kb / OX2R Kb
T3 construct: expressed in transfected cells; host or cells: CHO-K1
T3 sequence (Q9TUP7 1-444): T2 sequence (F7CZM2 1-444) with S19P, I70V, L113V, S195T, F197L, V272A, P281Q, D337E, I417V
Procedure: as §1, §2

[4] = target: T4, OX1R (Mus musculus, UniProt P58307); experiment: Inhibition of orexin-peptide-A-induced calcium mobilization in CHO cells, mouse OX1R; assay type: cell-based
T4 construct: expressed in transfected cells; host or cells: CHO-K1
T4 sequence (P58307 1-416): T1 sequence (P56718 1-416) with H116Q, R205H, F221I, G232A, P245R, S383G
Procedure: as §1, §2

[5] = target: T5, OX2R (Rattus norvegicus, UniProt P56719); experiment: Radio-ligand displacement binding, CHO-K1 membranes, rat OX2R; conditions: for fold OX2R selectivity (Ki): OX1R Ki / OX2R Ki; for Ki: read-out: OX2R affinity (Ki)
T5 construct: expressed in transfected cells; host or cells: CHO-K1
T5 sequence (P56719 1-460): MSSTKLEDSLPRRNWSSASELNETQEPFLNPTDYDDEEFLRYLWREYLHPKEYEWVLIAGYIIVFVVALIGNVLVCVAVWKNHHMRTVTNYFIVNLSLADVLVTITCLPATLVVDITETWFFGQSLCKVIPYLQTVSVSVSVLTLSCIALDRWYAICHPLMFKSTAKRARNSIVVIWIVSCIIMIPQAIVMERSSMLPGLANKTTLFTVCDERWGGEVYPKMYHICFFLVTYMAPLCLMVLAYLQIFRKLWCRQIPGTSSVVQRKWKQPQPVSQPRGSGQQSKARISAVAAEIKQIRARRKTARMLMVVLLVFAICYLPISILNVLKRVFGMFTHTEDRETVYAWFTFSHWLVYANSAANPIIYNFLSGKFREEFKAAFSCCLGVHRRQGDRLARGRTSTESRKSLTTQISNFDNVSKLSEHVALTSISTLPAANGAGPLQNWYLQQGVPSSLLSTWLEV
Procedure: as §1, §2

SMILES: COc1ccc(CNC(=O)c2cc(-c3cncc(C)c3)ncc2-c2ccccc2)nc1OC [2-SORA-7]
- Ki [1]: 2.61 µM
- Kb [2]: 0.018 µM
- fold OX2R selectivity (Kb) [2]: [203] fold
- Kb [3]: 0.013 µM
- fold OX2R selectivity (Kb) [3]: [>769] fold
- Kb [4]: 7.95 µM
- fold OX2R selectivity (Ki) [5]: [11877] fold
- Ki [5]: 0.00022 µM

SMILES: COc1ccc(CNC(=O)c2cc(-c3cc(Cl)cc(Cl)c3)cnc2-c2cccnc2)cc1OC [2-SORA-18]
- Ki [1]: 0.094 µM
- Kb [2]: 0.023 µM
- fold OX2R selectivity (Kb) [2]: [6] fold
- Kb [3]: 0.027 µM
- fold OX2R selectivity (Kb) [3]: [3] fold
- Kb [4]: 0.208 µM
- fold OX2R selectivity (Ki) [5]: [522] fold
- Ki [5]: 0.00018 µM

SMILES: COc1ccc(CNC(=O)c2cc(-c3cncc(Cl)c3)cnc2-c2ccccn2)nc1OC [MK-1064, 5″-chloro-N-[(5,6-dimethoxypyridin-2-yl)methyl]-2,2′:5′, 3″-terpyridine-3′-carbo xamide]
- Ki [1]: 1.07 µM
- Kb [2]: 0.009 µM
- fold OX2R selectivity (Kb) [2]: [375] fold
- Kb [3]: 0.011 µM
- fold OX2R selectivity (Kb) [3]: [337] fold
- Kb [4]: 10.3 µM
- fold OX2R selectivity (Ki) [5]: [1288] fold
- Ki [5]: 0.00083 µM

- Ki [1]: 2.39 µM
- Kb [2]: 0.02 µM
- Kb [3]: 0.016 µM
- Kb [4]: 27.2 µM
- Ki [5]: 0.00193 µM
SMILES: COc1ccc(CNC(=O)c2cc(-c3cncc(C)c3)ncc2-c2nccs2)nc1OC [MK-3697]

SMILES: Cc1ccc(-c2ncccn2)c(C(=O)N2C[C@H](COc3ccc(F)cn3)CC[C@H]2C)c1 [MK-6096]
- Ki [1]: 0.0025 µM
- Kb [2]: 0.014 µM
- fold OX2R selectivity (Kb) [2]: [1.5] fold
- Kb [3]: 0.01 µM
- fold OX2R selectivity (Kb) [3]: [1.0] fold
- Kb [4]: 0.009 µM
- fold OX2R selectivity (Ki) [5]: [11.4] fold
- Ki [5]: 0.00022 µM
